Test results as given in PMC3441713, “Citrullination of Histone H3 Interferes with HP1-Mediated Transcriptional Repression” (PLoS Genetics, 2012).
“Also recorded” adds a separate entry of the source.

Key:
[1] = test system: MCF7 cells; assay: Immunoblot of PADI4 and H3cit8K9me3 in MCF7 cells; type: cell-based, human
Text: Anti-H3cit8K9me3 antibody was produced in rabbits using a peptide coupled to KLH with the following sequence: ARTKQTA (cit)(Kme3)[…]. Anti-PADI4 (ChIP: P4749; immunoblots: ab50332), anti-H3cit(2,8,17) (ab5103), anti-H3(ab1791), and anti-H3K9me3 (ab8898) antibodies were purchased from Abcam. Anti-HP1α (ChIP: 1H5; immunoblots: 2G9) and anti-Brg1 (2E12) were from Euromedex. Calcium ionophore A23187 (used on HEK293 and MCF7 cells) and ionomycin (only ionophore tolerated by Jurkat cells), and 17-ß-estradiol (E2758) were purchased from Sigma. DNA was labeled with 4′,6-diamidino-2-phenylindole (DAPI; Invitrogen) at a concentration of 150 ng.ml^−1. […] Peptides were carefully quantified by amino acid analysis, and the presence of the modifications was confirmed by mass spectrometry. […]
(§1) HP1 small interfering RNAs (siRNAs) were described previously. PADI4 (J-012471-05) and Glyceraldehyde-3-phosphate dehydrogenase control siRNAs were purchased from Dharmacon. Cells were harvested 72 h after transfection with DharmaFECT 1 (T 2001-03). Total RNA from PBMCs and MCF7 cells was extracted with RNeasy (Qiagen) and quantified with an ND-1000 (Nanodrop). After DNase treatment (Roche), reverse transcription was performed using SuperScript III (Invitrogen) and random hexanucleotides according to the manufacturer's instructions. Complementary DNA was quantified by RT-qPCR as previously described. Proteins were extracted as described previously and detected by Western blotting. Acid extraction of histones was conducted as described by Shechter, et al., [78].

[2] = test system: MCF7 cells; assay: RT-qPCR of HERV, repeat and immune gene mRNA in MCF7 cells; type: cell-based, human
Method: as §1

[3] = test system: Jurkat T cells; assay: PADI4 production in Jurkat T cells after estrogen/ionophore treatment (data not shown); type: cell-based
[4] = test system: MCF7 cells; assay: ChIP on HERV LTRs and gene promoters in MCF7 cells; type: cell-based, human
Method: Values are averaged from 3 independent experiments.
Ionophores were used at 1 µM.

[5] = test system: Jurkat T cells; assay: RT-qPCR of TNFα, IL8 and PADI4 mRNA in Jurkat T cells; type: cell-based; conditions: 200 µM Cl-amidine, 72 h; cells stimulated by ionomycin and PMA; duplicate
Method: (B) Total RNA was isolated from Jurkat cells either un-stimulated or treated with ionomycin and PMA for 2 hour. Changes in mRNA levels for the indicated genes were quantified by RT-qPCR. The data are presented as the means ± SEM of triplicate experiments. […] (D) Total RNA was isolated from Jurkat cells treated as in B minus or plus PADI-inhibitor cl-amidine as indicated. Changes in mRNA levels for the indicated genes were quantified by RT-qPCR. The data are presented as the means ± SEM of duplicate experiments.
Jurkat cells were treated with phorbol myristate acetate (PMA) at 40 nM. Ionophores were used at 1 µM. PADI4 inhibitor, Cl-amidine (from Bertin Pharma) was dissolved in 1× PBS as a 50 mM stock solution. MCF7 and Jurkat cells were treated with 200 µM Cl-amidine in complete cell culture medium for exactly 72 h.

[6] = E2 (200 nM, 24 h) + A23187 (5 µM, 30 min), minus or plus 200 µM Cl-amidine, relative to un-induced

17-ß-estradiol [E2/A23187]
total levels of H3cit8K9me3 modification ([1]; 200 nM E2 24 h, then 5 µM A23187 30 min): increases total levels
total levels of PADI4 ([1]; 200 nM E2 24 h, then 5 µM A23187 30 min in Locke's solution): increases total levels; also recorded: induced
expression of HERV-H/env62, ERVWE1 and the selected cytokine genes [2, 6]: Cl-amidine-sensitive increase in expression
expression of HERV-H/env62 ([2]; E2 and A23187, 24 h, normalized to RPLP0, three replicates): increases the expression
production of PADI4 [3]: stimulated production
levels of citrullinated histone H3 at HERV-H, HERV-W/LTR and TNFα promoter ([4]; E2+A23187, anti-H3cit (2, 8, 17) or anti-H3cit8K9me3): locally increases levels of citrullinated histone H3
levels of HP1α recruitment at HERV-H, HERV-W/LTR and TNFα promoter ([4]; E2+A23187, anti-HP1α): markedly decreased

NC(=O)[C@H](CCCN=C(N)CCl)NC(=O)c1ccccc1 [Cl-amidine]
levels of H3Cit8K9me3 ([1]; 200 µM Cl-amidine, 72 h): decreased levels of H3Cit8K9me3
TNFα and IL8 mRNA accumulation [5]: reduced the kinetic and the abundance
expression of HERV-H/env62, ERVWE1 and the selected cytokine genes ([2]; 200 µM Cl-amidine, 72 h, no E2/A23187, four replicates): reduced expression
expression of HERV-H/env62, ERVWE1 and the selected cytokine genes [2, 6]: Cl-amidine-sensitive increase in expression
levels of HP1α occupancy at HERV-H, HERV-W/LTR and TNFα promoter ([4]; E2+A23187 plus 200 µM Cl-amidine, anti-HP1α): partially restored
